Test results: patent US9290482B2, “Amino-substituted imidazopyridazines” (BAYER PHARMA AKTIENGESELLSCHAFT, priority 2012, dated 2016)

Target: human full-length MKNK1 (Homo sapiens, UniProt Q9BUB5, T344D)
Test: MKNK1 kinase high ATP assay (TR-FRET)
Format: biochemical
Details: 2 mM ATP, 15 min preincubation with MKNK1, TR-FRET
Procedure: MKNK1 Kinase High ATP Assay
MKNK1-inhibitory activity at high ATP of compounds of the present invention after their preincubation with MKNK1 was quantified employing the TR-FRET-based MKNK1 high ATP assay as described in the following paragraphs.
A recombinant fusion protein of Glutathione-S-Transferase (GST, N-terminally) and human full-length MKNK1 (amino acids 1-424 and T344D of accession number BAA 19885.1), expressed in insect cells using baculovirus expression system and purified via glutathione sepharose affinity chromatography, was purchased from Carna Biosciences (product no 02-145) and used as enzyme. As substrate for the kinase reaction the biotinylated peptide biotin-Ahx-IKKRKLTRRKSLKG (C-terminus in amide form) was used, which can be purchased e.g. from the company Biosyntan (Berlin-Buch, Germany).
For the assay 50 nl nL of a 100fold concentrated solution of the test compound in DMSO was pipetted into a black low volume 384well microtiter plate (Greiner Bio-One, Frickenhausen, Germany), 2 μL of a solution of MKNK1 in aqueous assay buffer [50 mM HEPES pH 7.5, 5 mM magnesium chloride, 1.0 mM dithiothreitol, 0.005% (v/v) Nonidet-P40 (Sigma)] was added and the mixture was incubated for 15 min at 22° C. to allow pre-binding of the test compounds to the enzyme before the start of the kinase reaction. Then the kinase reaction was started by the addition of 3 μL of a solution of adenosine-tri-phosphate (ATP, 3.3 mM=>final conc. in the 5 μL assay volume is 2 mM) and substrate (0.1 μM=>final conc. in the 5 μL assay volume is 0.06 μM) in assay buffer and the resulting mixture was incubated for a reaction time of 30 min at 22° C. The concentration of MKNK1 was adjusted depending of the activity of the enzyme lot and was chosen appropriate to have the assay in the linear range, typical concentrations were in the range of 0.003 μg/mL. The reaction was stopped by the addition of 5 μL of a solution of TR-FRET detection reagents (5 nM streptavidine-XL665 [Cisbio Bioassays, Codolet, France] and 1 nM anti-ribosomal protein S6 (pSer236)-antibody from Invitrogen [#44921G] and 1 nM LANCE EU-W1024 labeled ProteinG [Perkin-Elmer, product no. AD0071]) in an aqueous EDTA-solution (100 mM EDTA, 0.1% (w/v) bovine serum albumin in 50 mM HEPES pH 7.5).
The resulting mixture was incubated for 1 h at 22° C. to allow the formation of complex between the phosphorylated biotinylated peptide and the detection reagents. Subsequently the amount of phosphorylated substrate was evaluated by measurement of the resonance energy transfer from the Eu-chelate to the streptavidine-XL. Therefore, the fluorescence emissions at 620 nm and 665 nm after excitation at 350 nm were measured in a TR-FRET reader, e.g. a Rubystar (BMG Labtechnologies, Offenburg, Germany) or a Viewlux (Perkin-Elmer). The ratio of the emissions at 665 nm and at […] was taken as the measure for the amount of phosphorylated substrate. The data were normalised (enzyme reaction without inhibitor=0% inhibition, all other assay components but no enzyme=100% inhibition).

Compound	IC50 [nM]
c1cc2oc(-c3cnc4ccc(OCC[C@@H]5CCCN5)nn34)cc2cn1 [Example 6, 3-(Furo[3,2-c]pyridin-2-yl)-6-{2-[(2S)-pyrrolidin-2-yl]ethoxy}imidazo[1,2-b]-pyridazine]	132
COc1nccc2oc(-c3cnc4ccc(OCC5CNC5)nn34)cc12 [Example 2, 6-(Azetidin-3-ylmethoxy)-3-(4-methoxyfuro[3,2-c]pyridin-2-yl)imidazo[1,2-b]-pyridazine]	31
COc1nccc2oc(-c3cnc4ccc(O[C@@H](CNC5CC5)c5ccc(F)cc5)nn34)cc12 (stereo in doubt) [Example 7, N-[2-(4-Fluorophenyl)-2-{[3-(4-methoxyfuro[3,2-c]pyridin-2-yl)imidazo[1,2-b]-pyridazin-6-yl]oxy}ethyl]cyclopropanamine]	389
CN[C@H](C)COc1ccc2ncc(-c3cc4c(OC)nccc4o3)n2n1 (stereo in doubt) [Example 3, 1-{[3-(4-Methoxyfuro[3,2-c]pyridin-2-yl)imidazo[1,2-b]pyridazin-6-yl]oxy}-N-methylpropan-2-amine]	32
COc1nccc2oc(-c3cnc4ccc(OC[C@H]5CNCCO5)nn34)cc12 [Example 1, 3-(4-Methoxyfuro[3,2-c]pyridin-2-yl)-6-[(2R)-morpholin-2-ylmethoxy]imidazo-[1,2-b]pyridazine]	11
c1cc2oc(-c3cnc4ccc(OC[C@H]5CNCCO5)nn34)cc2cn1 [Example 4, 3-(Furo[3,2-c]pyridin-2-yl)-6-[(2R)-morpholin-2-ylmethoxy]imidazo[1,2-b]-pyridazine]	72
c1cnc2cc(-c3cnc4ccc(OC[C@H]5CNCCO5)nn34)oc2c1 [Example 5, 3-(Furo[3,2-b]pyridin-2-yl)-6-[(2R)-morpholin-2-ylmethoxy]imidazo[1,2-b]-pyridazine]	86
COc1nccc2oc(-c3cnc4ccc(OC[C@@H]5CCCCN5)nn34)cc12 [Example 8, 3-(4-Methoxyfuro[3,2-c]pyridin-2-yl)-6-[(2S)-piperidin-2-ylmethoxy]imidazo-[1,2-b]pyridazine]	48
